Experimental data published in the supplement of paper PMC11451515.

System: SEM cells
Assay: cell viability relative to DMSO control; higher = less cytotoxic
Settings: 48 h
In short: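 Before seeding, each leukemia line was adapted for at least four passages in each medium. NOMO1 or SEM cells (500 cells/well) and P12-Ichikawa cells (1000 cells/well) went into 1536-well plates at 5 μl, then received library compounds in DMSO by pin dosing across 11 threefold concentrations, 47 μM to 0.79 nM. Readout was CellTiter-Glo One luminescence after 48 h at 37°C, and viability is given as a per-plate percentage of DMSO wells, with cell-free wells as background.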

[1] = HPLM + 10% dialyzed FBS, 0.000781 µM
[2] = HPLM + 10% dialyzed FBS, 0.00234 µM
[3] = HPLM + 10% dialyzed FBS, 0.00702 µM
[4] = HPLM + 10% dialyzed FBS, 0.0211 µM
[5] = HPLM + 10% dialyzed FBS, 0.0632 µM
[6] = HPLM + 10% dialyzed FBS, 0.19 µM
[7] = HPLM + 10% dialyzed FBS, 0.569 µM
[8] = HPLM + 10% dialyzed FBS, 1.71 µM
[9] = HPLM + 10% dialyzed FBS, 5.12 µM
[10] = HPLM + 10% dialyzed FBS, 15.4 µM
[11] = HPLM + 10% dialyzed FBS, 46.1 µM
[12] = RPMI 5 mM glucose + 10% FBS, 0.000781 µM
[13] = RPMI 5 mM glucose + 10% FBS, 0.00234 µM
[14] = RPMI 5 mM glucose + 10% FBS, 0.00702 µM
[15] = RPMI 5 mM glucose + 10% FBS, 0.0211 µM
[16] = RPMI 5 mM glucose + 10% FBS, 0.0632 µM
[17] = RPMI 5 mM glucose + 10% FBS, 0.19 µM
[18] = RPMI 5 mM glucose + 10% FBS, 0.569 µM
[19] = RPMI 5 mM glucose + 10% FBS, 1.71 µM
[20] = RPMI 5 mM glucose + 10% FBS, 5.12 µM
[21] = RPMI 5 mM glucose + 10% FBS, 15.4 µM
[22] = RPMI 5 mM glucose + 10% FBS, 46.1 µM
[23] = RPMI 5 mM glucose + 10% dialyzed FBS, 0.000781 µM
[24] = RPMI 5 mM glucose + 10% dialyzed FBS, 0.00234 µM
[25] = RPMI 5 mM glucose + 10% dialyzed FBS, 0.00702 µM
[26] = RPMI 5 mM glucose + 10% dialyzed FBS, 0.0211 µM
[27] = RPMI 5 mM glucose + 10% dialyzed FBS, 0.0632 µM
[28] = RPMI 5 mM glucose + 10% dialyzed FBS, 0.19 µM
[29] = RPMI 5 mM glucose + 10% dialyzed FBS, 0.569 µM
[30] = RPMI 5 mM glucose + 10% dialyzed FBS, 1.71 µM
[31] = RPMI 5 mM glucose + 10% dialyzed FBS, 5.12 µM
[32] = RPMI 5 mM glucose + 10% dialyzed FBS, 15.4 µM
[33] = RPMI 5 mM glucose + 10% dialyzed FBS, 46.1 µM

| Compound | cell viability [1] | cell viability [2] | cell viability [3] | cell viability [4] | cell viability [5] | cell viability [6] | cell viability [7] | cell viability [8] | cell viability [9] | cell viability [10] | cell viability [11] | cell viability [12] | cell viability [13] | cell viability [14] | cell viability [15] | cell viability [16] | cell viability [17] | cell viability [18] | cell viability [19] | cell viability [20] | cell viability [21] | cell viability [22] | cell viability [23] | cell viability [24] | cell viability [25] | cell viability [26] | cell viability [27] | cell viability [28] | cell viability [29] | cell viability [30] | cell viability [31] | cell viability [32] | cell viability [33] |
| --- | --- | --- | --- | --- | --- | --- | --- | --- | --- | --- | --- | --- | --- | --- | --- | --- | --- | --- | --- | --- | --- | --- | --- | --- | --- | --- | --- | --- | --- | --- | --- | --- | --- |
| Cc1n[nH]c(C)c1Cc1sc2c(c1C(=O)N1C[C@H](O)CO1)c(=O)n(C)c(=O)n2CC(C)C | 81.6% | 102% | 90.5% | 105% | 80.3% | 79.3% | 67.7% | 68% | 62.2% | 58.4% | 43.4% | 110% | 111% | 116% | 122% | 98.2% | 106% | 89.1% | 85.2% | 87.9% | 85.9% | 63.5% | 97.8% | 105% | 108% | 103% | 96.2% | 88.8% | 103% | 93.1% | 87.4% | 85% | 74.8% |
| CN1C(=O)C(=C/2N(C(=O)N(C3CC3)C(=O)C2=C1/NC4=CC=C(I)C=C4F)C5=CC=CC(=C5)NC(C)=O)\C |  |  |  |  |  |  |  |  |  |  |  | 107% | 129% | 118% | 129% | 136% | 114% | 85.6% | 60.1% | 7.99% | 4.7% | 4.99% |  |  |  |  |  |  |  |  |  |  |  |
| Oc1ccc(-c2nc(-c3ccncc3)c(-c3ccc(F)cc3)[nH]2)cc1 | 83.4% | 90.6% | 102% | 107% | 104% | 69.1% | 42.4% | 45.4% | 7.43% | 2.46% | 0.872% | 105% | 86.9% | 89.5% | 93.6% | 76.1% | 54.7% | 34.9% | 30.3% | 1.32% | 0.723% | 0.55% | 114% | 99.9% | 104% | 98.8% | 83% | 48.4% | 41.3% | 32.8% | 5.58% | 1.19% | 0.981% |
| Cc1cc(-c2ccc(CC(=O)Nc3ccc(-c4cccnc4)cc3)cc2)ccn1 | 115% | 112% | 123% | 118% | 118% | 119% | 123% | 87.8% | 80.8% | 12.7% | 18.4% | 101% | 123% | 131% | 133% | 124% | 129% | 131% | 112% | 123% | 24.5% | 15.5% | 113% | 113% | 126% | 106% | 110% | 124% | 128% | 112% | 104% | 21.7% | 16% |
| CN1\C(=C(O)/C2=C(C=C(Cl)S2)[S+]1([O-])=O)C(=O)NC3=NC=CC=C3 | 124% | 130% | 119% | 24.6% | 127% | 114% | 114% | 114% | 112% | 101% | 106% | 91.4% | 88% | 82.7% | 14.3% | 88.3% | 88.1% | 68.8% | 85.4% | 99.6% | 87.5% | 74.8% | 125% | 123% | 118% | 25.3% | 123% | 134% | 104% | 102% | 103% | 111% | 87.7% |
| CNCCN(C)Cc1c[nH]nc1-c1ccc(O[C@H]2C[C@H](OCCC3CCOCC3)C2)cc1 | 98.5% | 96.9% | 116% | 110% | 112% | 122% | 116% | 112% | 103% | 60.6% | 35.9% | 101% | 103% | 147% | 117% | 115% | 120% | 107% | 130% | 45.2% | 45.1% | 24.7% | 130% | 111% | 125% | 135% | 156% | 118% | 145% | 156% | 112% | 73.1% | 29.4% |
| CC(C)(OCc1nn(Cc2ccccc2)c2ccccc12)C(=O)O | 100% | 101% | 95.4% | 103% | 116% | 97.4% | 108% | 100% | 97.5% | 109% | 92.6% | 99.4% | 95.2% | 116% | 101% | 109% | 93.9% | 94% | 112% | 109% | 96% | 96.5% | 94.7% | 103% | 107% | 104% | 97.1% | 102% | 115% | 100% | 104% | 103% | 96.4% |
